Values of other authors in patent US7109169B2, “Method for treating heart failure by inhibiting the sarcolemmal sodium/calcium exchange” (priority 2002, dated 2006).

Assays:
[1] = test system: cardiac contractility
[2] = test system: Na/Ca exchanger

N=C(N)SCCc1ccc(OCc2ccc([N+](=O)[O-])cc2)cc1 [KB-R7943]
effect on cardiac contractility [1]: no effect
mode of the Na/Ca exchanger inhibited [2]: predominantly the Ca-entry mode
specificity of action ([2]; inhibits a variety of ion channels in the cardiac membrane): completely non-specific
